# Laboratory results: paper PMC5618657, “Osmolyte-Like Stabilizing Effects of Low GdnHCl Concentrations on D-Glucose/D-Galactose-Binding Protein” (International Journal of Molecular Sciences, 2017)
# Read-outs that look alike come from different tables or passages of the source.
# Key:
# Set-up in all cases: species or system E. coli
# [1] = biological target: T1, GGBP/H152C-BADAN (Escherichia coli, UniProt P0AEE5, H175C); assay: Stopped-flow fluorescence kinetics of glucose binding; settings: glucose 0.5 mM, protein 0.6 μM, 23 °C
# T1 construct: polyhistidine (C); BADAN (fluorescent dye covalently linked to Cys152); made in house; host or cells: E. coli BL21(DE3)
# Excerpt: The greater affinity of GGBP to glucose in the presence of low GdnHCl concentrations was also manifested by an increase in the binding rate of glucose to the protein in the presence of 0.1 M GdnHCl. It is known that, at high concentrations of one of the reactants, the reaction rate is predominately determined by the content of the substance with a low concentration (pseudo-first order conditions). Therefore, it can be expected that in solutions of high glucose concentration, the rate of the GGBP/H152C-glucose complex formation will be determined by the content of molecules with the semi-closed conformations in a protein ensemble. […]
# It is expected that the decay curves should contain at least two rate constants characterizing the interconversion between the protein conformers in the absence of ligand and reflecting the glucose binding to GGBP/H152C [88]. […] Therefore, in practice, the recorded curves are approximated by monoexponential decay.
# The kinetics of glucose binding to GGBP/H152C-BADAN in a timeframe from 0 to 0.04 s was measured using the MOS450spectrometerequipped with the stopped-flow mixing module SFM-4 (Bio-Logic, Seyssinet-Pariset, France). The excitation wavelength was 387 nm, the dye fluorescence signal was filtered by cut-off filter at 405 nm. […]
# [2] = biological target: T2, wtGGBP (Escherichia coli, UniProt P0AEE5); assay: Isothermal titration calorimetry of glucose binding (wild type); settings: read-out: Kd (ITC)
# T2 construct: polyhistidine (C); made in house; host or cells: E. coli BL21(DE3)
# Excerpt: (§1) For this purpose, we used isothermal titration calorimetry (ITC) (Figure 7), since this approach allows for the determination of both the stoichiometric and thermodynamic binding parameters. The results of the ITC analysis generally corresponded to the data generated by the fluorescent-based analysis of the GGBP/H152C-BADAN interaction with glucose in solutions with sub-denaturing GdnHCl concentrations. […] The enthalpy contribution to the Gibbs free energy change caused by the interaction of studied proteins with glucose was principal in all solutions tested. This indicates the significant contribution of the hydrogen bonds between protein and glucose to the protein-ligand complex formation, [91] which is in excellent agreement with the X-ray structural data showing that the glucose binding to the GGBP active center is stabilized by 13 hydrogen bonds. […]
# (§2) The parameters of the binding of mutant GGBP/H152C and wtGGBP with glucose in buffer, GdnHCl, and urea solutions were determined using the isothermal titration calorimeter TA Nano ITC (TA Instruments, New Castle, DE, USA) at the Resource Center of the Thermogravimetric and Calorimetric Research (Research Park of St. Petersburg State University). […]
# [3] = biological target: T3, GGBP/H152C (Escherichia coli, UniProt P0AEE5, H175C); assay: Isothermal titration calorimetry of glucose binding (mutant); settings: Kd (ITC)
# T3 construct: polyhistidine (C); made in house; host or cells: E. coli BL21(DE3)
# Excerpt: as §1, §2
# [4] = solution without denaturants (black)
# T1 sequence (P0AEE5 24-332 H175C limits assumed): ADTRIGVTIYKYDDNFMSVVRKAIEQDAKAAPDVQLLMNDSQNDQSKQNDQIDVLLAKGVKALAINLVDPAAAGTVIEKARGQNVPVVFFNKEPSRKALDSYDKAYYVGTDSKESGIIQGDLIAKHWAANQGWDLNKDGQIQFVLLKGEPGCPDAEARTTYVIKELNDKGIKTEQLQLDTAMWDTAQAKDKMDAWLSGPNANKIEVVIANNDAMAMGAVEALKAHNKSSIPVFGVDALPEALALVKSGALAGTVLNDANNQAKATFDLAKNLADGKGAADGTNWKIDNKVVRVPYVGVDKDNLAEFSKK
# T3 sequence (P0AEE5 24-332 H175C limits assumed): as above
# T2 sequence (P0AEE5 24-332 limits assumed): as the sequence (P0AEE5 24-332 H175C limits assumed) above, with C152H counted along it
structure (smiles),measurement,setting,value
"OC[C@H]1OC(O)[C@H](O)[C@@H](O)[C@@H]1O (stereo partly drawn) [glucose, D-Glucose]",k (rate of GGBP/H152C-glucose complex formation),[1]; in 0.1 M GdnHCl,508 s⁻¹
same,k (rate of GGBP/H152C-glucose complex formation),[1]; without denaturants,465 s⁻¹
same,Kd,[2]; 0.1 M GdnHCl (red),0.28 ± 0.06 µM
same,Kd,[2]; [4],0.31 µM
same,Kd,[3]; 0.1 M GdnHCl (red),2.29 ± 0.08 µM
same,Kd,[3]; [4],3.05 µM
